According to US7914793B2, “Method for producing an antigenic substance and antibody” (priority 1997, dated 2011):

Experiments:
Pseudomonas aureginosa = experiment: CFU of Pseudomonas aureginosa after Yoshixol; type: cell-based; conditions: for CFU: 2 M Yoshixol in ethanol, 10 ul/ml broth, 10^8, 37° C.
Text: (§1) This procedure was repeated twice.

[1] = intravenous injection of Yoshixol in control rabbit, observation for abnormal signs; type: in vivo; conditions: Japanese white rabbit, 10 μl/Kg of 2 M Yoshixol with ethanol i.v. for 3 min, immediately after the injection through one month
Procedure: In addition, rabbit serum as the control which was shown in this example was produced by the following. In a Japanese white rabbit which was born from a parent as same as a rabbit which was used in the above example, 10 μl/Kg of 2 M Yoshixol with ethanol was injected intravenously for 3 min via a ear vein. Solution of Yoshixol was mixed with culture medium of 5 ml. The medium was filtered through miliporefilter of cellulose acetate (pore size, 0.45 μm). […] A rabbit was sacrificed under Nembutal anesthesia one month after the injection. Blood was removed.

MRSA = experiment: CFU of MRSA in broth after Yoshixol; type: cell-based, methicilin resistant Staphylococcus aureus
Text: as §1

Candida albicans = experiment: CFU of Candida albicans in broth after Yoshixol; type: cell-based; conditions: for CFU: 2 M Yoshixol in ethanol, 10 ul/ml broth
Text: as §1

[2] = tested on: Mycobacterium Rapid Grower; experiment: CFU of Mycobacterium Rapid Grower after Yoshixol; type: cell-based; conditions: for CFU: 2 M Yoshixol in ethanol, 10 ul/ml broth, 3.3×10^5, 37° C.
Text: as §1

SMILES: C=C1CC(C)(C)C=CC1=O [Yoshixol, 4,4-dimethyl-6-methylene-2-cyclohexen-1-one]
- CFU (Pseudomonas aureginosa; 3 hours after the incubation): zero
- CFU (Pseudomonas aureginosa; one hour after the incubation): zero
- colony growth on heart infusion agar after re-plating 0.1 ml (Pseudomonas aureginosa; incubated at 37° C. for 48 hours): no colony growth
- abnormal signs after injection [1]: Any abnormal sign did not find
- CFU (MRSA; 2 M Yoshixol in ethanol, 10 ul/ml broth, 7.6×10^8, 37 °, 24 hours after the incubation): zero
- colony growth on heart infusion agar after re-plating 0.1 ml (MRSA; incubated for 48 hours): no colony growth
- CFU (Candida albicans; 10^8, 3 hours after the incubation): zero
- CFU (Candida albicans; 10^8, one hour after the incubation): zero
- colony growth on heart infusion agar after re-plating 0.1 ml (Candida albicans; incubated for 48 hours): no colony growth
- CFU ([2]; 3 hours after the incubation): zero
- CFU ([2]; one hour after the incubation): zero
- colony growth on heart infusion agar after re-plating 0.1 ml ([2]; incubated at 37° C. for 72 hours): no colony growth
